The text below walks through data of patent US10980765B2, “Isothiocyanatostilbenes as a novel method and product for treating cancer” (BOARD OF SUPERVISORS OF LOUISIANA STATE UNIVERSITY AND …, priority 2015, dated 2021).

Assay [1] concerns the target T1, c-Met (Homo sapiens, UniProt P08581). In words: Western blot of c-Met activation (phospho-c-Met) by HGF in cancer cell lines. Also noted: endogenous in cells; host or cells: DU145, PC3, MDA-MB-231, HCC1806. It is filed as cell-based. As to the method: (§1) Western blot was used to analyze pMet expression. […] Western blot was used to analyze the indicated proteins.
(§2) Western blot was used to analyze the indicated proteins.
as §2
(§3) Western blot analysis: Cells were grown to ˜70% confluency prior to treatment. Cells were serum-starved in serum-free media for 30 minutes prior to treatment in complete media or serum-free media for the indicated times. Cell lysates were collected in Laemmli (125 mM Tris, 4% SDS, 0.01% bromophenol blue, 30% sucrose) containing 0.5% β-mercaptoethanol and boiled ˜8 minutes. Primary antibodies include: phospho-c-Met (Y1234/1235), phospho-Akt (S473), pEGFR […], pIGF-IRβ (Y1135/1136) (Cell Signaling Technology; Beverly, Mass.); α-actin (Sigma-Aldrich), c-Met (C-28) (Life Technologies). Secondary antibodies include: horseradish peroxidase-conjugated anti-rabbit and anti-mouse (GE Healthcare; Pittsburgh, Pa.). ECL 2 was used for chemiluminescent detection (Thermo Scientific; Rockford, Ill.). Densitometry was calculated using ImageJ (NIH).
(In general: A western blot detects proteins with antibodies after separation by electrophoresis.)

For assay [2], the target named is wild-type c-Met (Homo sapiens, UniProt P08581). In words: Phosphorylation inhibition assay (Z′-LYTE Kinase Assay-Tyr6 Peptide), wild-type c-Met. Type of assay: biochemical. As to the method:
as §1
Phosphorylation inhibition assay: Z′-LYTE™ Kinase Assay-Tyr6 Peptide kit (Invitrogen) was used to assess the ability of tested compounds to inhibit c-Met phosphorylation. […] After 1 hour incubation at room temperature, 10 μl development solution containing site-specific protease was added to each well. Incubation was continued for 1 hour. The reaction was then stopped, and the fluorescent signal ratio of 445 nm (coumarin)/520 nm (fluorescein) was determined on a plate reader (BioTek FLx800™), which reflects the peptide substrate cleavage status and/or the kinase inhibitory activity in the reaction. […] The IC50 value for each compound was calculated by nonlinear regression of log concentration versus % c-Met phosphorylation ±S.E.M., implemented in GraphPad Prism version 5.0 (GraphPad Software, CA, USA).

Assay [3] relates to DU145 cells. Kind of assay: Invasion through Matrigel. Type of assay: cell-based. The following applies: indicated concentrations; 33 ng/mL HGF; Matrigel 1:5. On the procedure:
(§4) For invasion (FIGS. 4C and 4D), wounded cells were overlaid with Matrigel diluted 1:5 in serum-free media; n=3.
(§5) Wound healing and invasion: DU145 cells were grown to ˜100% confluency prior to wounding with the IncuCyte™ WoundMaker™ (Essen Bioscience; Ann Arbor, Mich.) and washed once with complete media. For invasion, cells were covered with Matrigel diluted 1:5 in serum-free RPMI following wounding. […] Images were taken every 4 hours with the IncuCyte™ ZOOM imaging system (Essen Bioscience). Quadruplicate replicates were used in each experiment. Data are presented as percent wound density ±standard error of the mean (S.E.M.).

Assay [4] deals with T1, c-Met. Kind of assay: Western blot of pMet in c-Met amplified H1993 lung cancer cells without HGF. The following applies: 5 μM compound; no HGF, constitutive c-Met activation. It is filed as cell-based. Details: endogenous in cells. On the procedure: as §1
H1993 cells have c-Met amplification such that they have high levels of pMet, even in the absence of HGF, due to constitutive c-Met dimerization and autophosphorylation.
as §3

The subject of assay [5] is DU145 spheroids. Kind of assay: 3D spheroid proliferation. Type of assay: cell-based. The following applies: 33 ng/mL HGF, Matrigel, 72 hours. As to the method:
Data are shown as the percent change in growth from T=0 to T=72 hours. For each of the six independent variables in each bar graph, a representative image at the 72 hour time point is shown. The six corresponding images below each respective bar graph
3D spheroid proliferation: Prior to seeding, cells were incubated with 2.5 ng/μl CellTracker Red (Life Technologies) in complete DMEM lacking Phenol Red for 5 minutes at room temperature then centrifuged at 1000 RPM for 5 minutes. […] The mixture of cells, treatments, and Matrigel in complete media was seeded at 2000 cells/well in a 96 well plate. The plate was centrifuged at 1000 RPM for 3 minutes to collect the cells into the bottom of the plate. Spheroid growth was imaged for up to 80 hours and analyzed for average red object area using the IncuCyte™ ZOOM software. Data are shown as percent change in spheroid growth between TO and […] with HGF normalized to 100% change in growth. Images were captured by the IncuCyte™ ZOOM imaging system and representative 10× images are shown.

The subject of assay [6] is Cells. Kind of assay: 2D proliferation (Cell Titer Blue). It is filed as cell-based. Conditions: 24-72 hours. On the procedure:
A TO timepoint was also measured. For each timepoint, cells were exposed to Cell Titer Blue reagent (Promega) for 1 hour at 37° C. 5% CO2. Experiments were performed with quadruplicate replicates. Fluorescence was measured using a BioTek Synergy 4 plate reader with Gen5 software.
A general note: Resazurin is reduced to fluorescent resorufin, in cell work by metabolically active cells.

Assay [7] relates to DU145 cells. In words: Wound healing. It is filed as cell-based. As to the method: (§6) Cells were fixed and stained for actin. Representative images are shown. […] Data are shown as mean±S.E.M.; n=3.
as §4, §5

In assay [8] the target is T2, EGFR (Homo sapiens, UniProt P00533).
T2 construct: endogenous in cells; host or cells: DU145
T2 sequence (P00533 25-1210): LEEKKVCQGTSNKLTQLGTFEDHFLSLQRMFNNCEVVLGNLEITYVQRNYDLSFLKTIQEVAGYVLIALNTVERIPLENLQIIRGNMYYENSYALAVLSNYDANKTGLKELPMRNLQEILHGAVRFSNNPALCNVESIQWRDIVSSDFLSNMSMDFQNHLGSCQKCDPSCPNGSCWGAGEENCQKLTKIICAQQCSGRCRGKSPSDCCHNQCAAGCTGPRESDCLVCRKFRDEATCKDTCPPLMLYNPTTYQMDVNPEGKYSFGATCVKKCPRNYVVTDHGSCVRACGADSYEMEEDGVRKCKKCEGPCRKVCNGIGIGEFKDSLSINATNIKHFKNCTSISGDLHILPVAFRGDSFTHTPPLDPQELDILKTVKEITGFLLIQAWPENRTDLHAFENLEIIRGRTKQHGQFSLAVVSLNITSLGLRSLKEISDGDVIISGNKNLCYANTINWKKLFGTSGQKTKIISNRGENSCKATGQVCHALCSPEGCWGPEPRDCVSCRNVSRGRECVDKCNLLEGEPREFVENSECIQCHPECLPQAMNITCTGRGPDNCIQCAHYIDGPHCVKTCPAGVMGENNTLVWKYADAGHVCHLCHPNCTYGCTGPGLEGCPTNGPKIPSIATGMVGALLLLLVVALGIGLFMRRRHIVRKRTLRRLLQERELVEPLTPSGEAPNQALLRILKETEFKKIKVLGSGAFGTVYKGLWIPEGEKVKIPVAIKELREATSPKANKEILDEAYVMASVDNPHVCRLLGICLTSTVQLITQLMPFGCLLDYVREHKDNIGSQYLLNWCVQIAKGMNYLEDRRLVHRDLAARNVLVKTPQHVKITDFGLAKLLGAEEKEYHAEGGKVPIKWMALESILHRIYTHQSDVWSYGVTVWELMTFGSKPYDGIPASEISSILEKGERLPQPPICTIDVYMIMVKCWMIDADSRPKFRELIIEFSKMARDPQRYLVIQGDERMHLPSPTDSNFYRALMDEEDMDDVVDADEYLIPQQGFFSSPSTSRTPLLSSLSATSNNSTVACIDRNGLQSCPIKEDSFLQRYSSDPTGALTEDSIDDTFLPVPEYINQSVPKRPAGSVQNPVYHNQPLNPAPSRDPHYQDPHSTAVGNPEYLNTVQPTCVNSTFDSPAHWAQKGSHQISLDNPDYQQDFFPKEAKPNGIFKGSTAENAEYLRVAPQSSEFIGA
In words: Western blot of EGFR activation by EGF in DU145 cells. It is filed as cell-based. Conditions: 4 μM DIDS or 25 μM H2DIDS; DU145, 100 ng/ml EGF 20 min. On the procedure:
as §3

The subject of assay [9] is DU145 cells. In words: Scattering assay. The following applies: 4 μM DIDS or 25 μM H2DIDS. Type of assay: cell-based. On the procedure:
as §6
Cells were fixed and stained for actin. Representative images are shown.
Scattering assay: DU145 cells were grown to ˜50% confluency. […] Cells were fixed with 4% paraformaldehyde and stained with Oregon Green 488 phalloidin (Invitrogen; Carlsbad, Calif.). Images were acquired on an Eclipse TE300 inverted microscope (Nikon; Tokyo, Japan) with NIS Elements version 4.13.04 software. Presented images were taken using a 10× objective.

Assay [10] has as its target T3, IGFR (Homo sapiens, UniProt P08069).
T3 construct: endogenous in cells; host or cells: DU145
Kind of assay: Western blot of IGFR activation by IGF in DU145 cells. Type of assay: cell-based. Conditions: 4 μM DIDS or 25 μM H2DIDS; DU145, 100 ng/ml IGF 20 min. On the procedure:
as §3

T1 sequence (P08581 25-1390): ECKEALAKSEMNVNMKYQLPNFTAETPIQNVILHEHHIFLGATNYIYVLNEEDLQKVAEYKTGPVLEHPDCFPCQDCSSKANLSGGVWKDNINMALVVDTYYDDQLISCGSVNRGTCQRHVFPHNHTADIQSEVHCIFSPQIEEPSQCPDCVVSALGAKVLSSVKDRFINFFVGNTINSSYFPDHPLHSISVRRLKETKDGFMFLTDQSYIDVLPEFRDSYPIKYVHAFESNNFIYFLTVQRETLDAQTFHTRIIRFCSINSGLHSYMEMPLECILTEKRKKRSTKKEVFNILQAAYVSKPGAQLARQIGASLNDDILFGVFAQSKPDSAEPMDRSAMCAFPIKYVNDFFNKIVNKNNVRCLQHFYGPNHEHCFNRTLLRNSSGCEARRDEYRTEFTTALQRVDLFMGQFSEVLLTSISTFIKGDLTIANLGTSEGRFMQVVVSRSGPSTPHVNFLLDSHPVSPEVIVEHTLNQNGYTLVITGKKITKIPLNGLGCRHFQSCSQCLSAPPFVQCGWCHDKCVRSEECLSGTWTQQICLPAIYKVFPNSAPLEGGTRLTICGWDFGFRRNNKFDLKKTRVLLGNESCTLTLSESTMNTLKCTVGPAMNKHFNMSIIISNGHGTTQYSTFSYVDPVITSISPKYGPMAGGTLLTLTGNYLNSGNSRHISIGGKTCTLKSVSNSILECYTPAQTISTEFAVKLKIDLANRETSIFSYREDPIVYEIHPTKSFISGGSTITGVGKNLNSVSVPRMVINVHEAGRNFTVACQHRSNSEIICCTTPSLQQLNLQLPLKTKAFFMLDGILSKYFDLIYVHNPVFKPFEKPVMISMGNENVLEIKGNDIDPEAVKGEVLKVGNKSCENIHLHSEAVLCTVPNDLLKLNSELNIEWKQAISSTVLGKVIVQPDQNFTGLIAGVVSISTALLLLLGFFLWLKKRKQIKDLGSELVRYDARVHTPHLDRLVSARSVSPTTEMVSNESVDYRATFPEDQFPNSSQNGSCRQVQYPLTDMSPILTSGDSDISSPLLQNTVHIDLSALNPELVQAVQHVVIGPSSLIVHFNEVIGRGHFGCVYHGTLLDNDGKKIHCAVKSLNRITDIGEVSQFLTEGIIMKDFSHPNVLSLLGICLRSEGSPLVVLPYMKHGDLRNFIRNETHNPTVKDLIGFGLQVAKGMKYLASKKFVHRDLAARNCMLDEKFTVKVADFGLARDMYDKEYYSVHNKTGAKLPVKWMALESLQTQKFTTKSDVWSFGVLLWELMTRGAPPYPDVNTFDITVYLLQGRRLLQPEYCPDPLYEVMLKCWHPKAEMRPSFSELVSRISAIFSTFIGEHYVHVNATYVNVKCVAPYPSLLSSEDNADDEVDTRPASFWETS
Chain of wild-type c-Met (P08581 25-1390): as above

Consider `O=[N+]([O-])c1ccc(C=Cc2ccc([N+](=O)[O-])cc2S(=O)(=O)O)c(S(=O)(=O)O)c1` [DNDS, 4,4′-dinitrostilbene-2,2′-disulfonic acid], for which, in assay [1] (DU-145, read-out: inhibition of c-Met), the inhibition (in general, the change of the read-out against control, counted positive when it falls) at 2000 µM was around 90%.
Turning to `O=S(=O)(O)c1cc(N=C=S)ccc1CCc1ccc(N=C=S)cc1S(=O)(=O)O` [H2DIDS, 4,4′-Diisothiocyanatodihydrostilbene-2,2′-disulfonic acid], the “IC50, wild-type c-Met” value in assay [2] (cell-free kinase assay, 200 μM ATP) is listed as “low micromolar range”. Further, the IC50 (in general, the midpoint of a concentration-inhibition curve) in assay [2] (cell-free kinase assay, 200 μM ATP, read-out: IC50, wild-type c-Met) was 3.6 µM. Besides, the “HGF-induced invasion through Matrigel” value in assay [3] is reported as “inhibited HGF-induced invasion through Matrigel in a dose-dependent manner”. Further, in assay [1] (8 μM compound, DU145 cells, 33 ng/ml HGF 20 min, serum-free, Western blot densitometry), the “reduction of c-Met activation” value is around 90%. The “effective concentrations for reducing c-Met activation in 10% FBS” value in assay [1] (DU145 cells, 33 ng/ml HGF 20 min, 10% FBS RPMI, compared with serum-free) was “slightly higher effective concentrations”. Besides, in assay [1] (multiple cancer cell lines (summary)), the “c-Met inhibitory effective doses” value is on record as “low micromolar range”. The “pMet levels in H1993 cells” value in assay [4] is on record as “much less significant effects”. For the same compound, the “lowest concentration with some inhibitory effects on HGF-induced spheroid growth” value in assay [5] came to 40 nM. Moreover, the “decrease of HGF-induced DU145 spheroid growth” value in assay [5] (5 μM compound) is listed as around 60%. For the same compound, the “proliferation in complete media in 2D assay” value in assay [6] (complete media) is “minimal effects”. Besides, the “serum-free proliferation in 2D assay” value in [6] (serum-free media) was “minimal effects”. In addition, in assay [7] (4 μM DIDS or 25 μM H2DIDS, 33 ng/ml HGF), the HGF-induced wound healing result is “significantly reduced”. In addition, the EGF-mediated wound healing result in assay [7] (4 μM DIDS or 25 μM H2DIDS, 100 ng/ml EGF) is “minimal effects”. For the same compound, the “HGF-induced wound healing, dose response” value in assay [7] (indicated concentrations, 33 ng/mL HGF) was “reduce HGF-induced wound healing in a dose response manner”. Besides, the EGFR activation result in [8] is “do not significantly reduce”. Further, the HGF-induced cell scattering entry in assay [9] (33 ng/ml HGF overnight) is on record as “able to reduce HGF-induced”. For the same compound, the EGF-induced cell scattering entry in assay [9] (100 ng/ml EGF overnight) was “not EGF-induced”. Further, the IGFR activation result in assay [10] was “do not significantly reduce”.
Consider `CC(=O)Nc1ccc(C=Cc2ccc(N=C=S)cc2S(=O)(=O)O)c(S(=O)(=O)O)c1` [SITS, 4-acetamido-4′-isothiocyanatostilbene-2,2′-disulfonic acid], for which the inhibition at 250 µM in assay [1] (DU-145, 250 μM compound, DU145 cells, 33 ng/ml HGF 20 min, serum-free) was around 90%.
With `Cc1[nH]c(/C=C2\C(=O)Nc3ccc(S(=O)(=O)N(C)c4cccc(Cl)c4)cc32)c(C)c1C(=O)N1CCN(C)CC1` [SU11274, reference compound], the “reduction of c-Met phosphorylation” value in assay [2] (500 nM compound, kinase assay) was around 70%. Also, the “pMet levels in H1993 cells” value in [4] is “ameliorated pMet levels”.
